Results on 17 compounds are retold here after paper PMC10254306, “Piplartine-Inspired 3,4,5-Trimethoxycinnamates: Trypanocidal, Mechanism of Action, and In Silico Evaluation” (Molecules, 2023).

On the set-up of data set [1]: method as in PMID 25922266. To be noted: rat plasma; cited from earlier work.
In data set [2] the test system is epimastigote forms of T. cruzi, Y strain. The data set is described as follows: Trypanocidal activity on epimastigote forms (growth inhibition, Neubauer chamber count). Type of data set: cell-based, Trypanosoma cruzi. To be noted: for IC50: Trypanosoma cruzi; for Selectivity Index (SI) Epimastigote: ratio CC50 (LLC-MK2) / IC50 epimastigote. As for the experimental part: (§1) Initially, the prepared esters were submitted to in vitro tests using the microdilution technique in 96-well plates to evaluate the trypanocidal activity against the epimastigote evolutionary form at different concentrations (200–3.12 μg/mL). Then, the compounds with the best activity were tested against the trypomastigote form of T. cruzi. In both assays, IC50 values were calculated; a compound is considered to have trypanocidal activity when IC50 <40 μM [21]. The results are expressed in Table 1.
Initially, epimastigotes were cultured and distributed in 96-well plates at a density of 10^6 cells/mL in liver infusion tryptose medium supplemented with 10% fetal bovine serum (FBS) and 1% antibiotic. Then, the cells were treated with piplartine analogues at different concentrations and incubated at 28 °C for 24 h. To quantify the growth inhibition of the parasites, a Neubauer chamber was used, and the IC50 was defined.

Data set [3] deals with trypomastigote forms of T. cruzi, Y strain. The data set is described as follows: Trypanocidal activity on trypomastigote forms (viability by counting). To be noted: for IC50: Trypanosoma cruzi, Y strain, 24 h; for Selectivity Index (SI) Trypomastigote: ratio CC50 (LLC-MK2) / IC50 trypomastigote. Type of data set: cell-based, Trypanosoma cruzi. As for the experimental part:
as §1
Trypomastigote forms were obtained by infecting LLC-MK2 cells with the parasite; in this way, the cells were incubated for 24 h in T-25/75 cm^2 flasks at 37 °C in an atmosphere with 5% CO2 in DMEM medium supplemented with 2% FBS and 1% antibiotic. Subsequently, the trypomastigote forms were distributed in 96-well plates treated with piplartine analogues at different concentrations (200; 100; 50; 25; 12.5; 6.25; 3.12 μg/mL) and incubated at 37 °C for 24 h. The assessment of cell viability was performed by counting, and the IC50 was defined.

For data set [4], the system named is epimastigote forms of T. cruzi. Details: method as in doi:10.1007/s00044-008-9161-9. To be noted: read-out: IC50 growth of epimastigote forms; cited from earlier work.
Data set [5] is described as follows: In vitro cytotoxicity, MTT assay. It is filed as cell-based, Rhesus monkey. Particulars: Rhesus monkey, MTT, 24 h, read-out: LLCK-MK2 CC50. The procedure:
The compounds were considered selective for the parasite when SI ≥ 10 [21]. The results are expressed in Table 2.
For the cytotoxicity analysis, the (3-[4,5-dimethylthiazol-2-yl]-2,5 diphenyl tetrazolium bromide) (MTT) assay was used, in which the LLC-MK2 cells were cultured in Dulbecco’s Modified Eagle Medium (DMEM), then exposed to the piplartine analogues at different concentrations (25–200 μg/mL) and incubated for 24 h at 37 °C. Then MTT was added, and the cells were incubated for 4 h, after which 10% sodium dodecyl sulfate was added. […] To calculate the relative cell viability, cells treated only with sterile phosphate-buffered saline were used as a negative control. The experiments were conducted in triplicates.
A general note: Formazan colour is commonly taken as a measure of viable cells.

For data set [6], the system named is amastigote form of the parasite. More on the design: method as in PMID 25880257. To be noted: cited from earlier work.
The test system of data set [7] is epimastigote form of T. cruzi. More on the design: method as in PMID 31775321. Particulars: cited from earlier work.

Where “and” joins values, the source holds several entries; their conditions need not be identical. Equal values may be shown once. Read-outs that look alike come from different tables or passages of the source. A value given as a limit tells only on which side of the number the result lay.

Regarding `COc1cc(C=CC(=O)O)cc(OC)c1OC` [3,4,5-trimethoxycinnamic acid], in data set [1], the bioavailability result is “high bioavailability” and the oral absorption result was “rapid oral absorption”.

Consider `O=C(Cn1ccnc1[N+](=O)[O-])NCc1ccccc1` [Benznidazole, reference compound], for which the IC50 (commonly the concentration that gives 50% inhibition) in data set [2] (Y strain, 24 h) was 23 µg/mL and 115 µM; in data set [3], 32.3 µg/mL and 161 µM; in data set [4], 42.7 µM.

For the compound `COC(=O)/C=C/c1cc(OC)c(OC)c(OC)c1` [Compound 1, (E)-Methyl 3-(3,4,5-trimethoxyphenyl)acrylate], in data set [2] (Y strain, 24 h), the IC50 was 31.5 µg/mL and 125 µM. Also, in data set [2], the “Selectivity Index (SI) Epimastigote” value was 4.01. Further, the CC50 (commonly the concentration giving 50% cytotoxicity) at 24 h in data set [5] is 126 µg/mL and 501 µM.

For the compound `CCOC(=O)/C=C/c1cc(OC)c(OC)c(OC)c1` [Compound 2], the IC50 in data set [2] (Y strain, 24 h) was 85.7 µg/mL and 322 µM. Also, in data set [2], the “Selectivity Index (SI) Epimastigote” value is recorded as >2.3. Further, the CC50 at 24 h in data set [5] was > 200 µg/mL and > 751 µM.

Turning to `CCCOC(=O)/C=C/c1cc(OC)c(OC)c(OC)c1` [Compound 3], the IC50 in data set [2] (Y strain, 24 h) is 90.1 µg/mL and 321 µM. The “Selectivity Index (SI) Epimastigote” value in data set [2] was determined as 1.6. The CC50 at 24 h in data set [5] is 148 µg/mL and 526 µM.

With `COc1cc(/C=C/C(=O)OC(C)C)cc(OC)c1OC` [Compound 4], the IC50 in data set [2] (Y strain, 24 h) is 74.5 µg/mL and 266 µM. For the same compound, in data set [2], the “Selectivity Index (SI) Epimastigote” value is on record as >2.7. The CC50 at 24 h in data set [5] was > 200 µg/mL and > 714 µM.

As to `CCCCCOC(=O)/C=C/c1cc(OC)c(OC)c(OC)c1` [Compound 5], the IC50 in data set [2] (Y strain, 24 h) was 20.2 µg/mL and 65.5 µM. Also, the “Selectivity Index (SI) Epimastigote” value in data set [2] is on record as >9.9. In addition, the CC50 at 24 h in data set [5] is > 200 µg/mL and > 649 µM.

Consider `CCCCCCCCCCOC(=O)/C=C/c1cc(OC)c(OC)c(OC)c1` [Compound 6], for which the “trypanocidal activity against epimastigote form (in words)” value in data set [2] (Y strain) is reported as “suppressed the trypanocidal activity”. In addition, the “Epimastigote IC50” value in data set [2] (Y strain, 24 h) was “n*”. In addition, the CC50 at 24 h in data set [5] is > 200 µg/mL and > 528 µM.

Consider `COc1ccc(COC(=O)/C=C/c2cc(OC)c(OC)c(OC)c2)cc1` [Compound 7], for which the IC50 in data set [2] (Y strain, 24 h) was 56.4 µg/mL and 157 µM. In data set [2], the “Selectivity Index (SI) Epimastigote” value is 3.5. Further, the CC50 at 24 h in data set [5] (LLC-MK2 renal epithelial cells) was 196 µg/mL and 547 µM.

Take `COc1cccc(COC(=O)/C=C/c2cc(OC)c(OC)c(OC)c2)c1` [Compound 8]: in data set [2] (Y strain, 24 h), the IC50 was 40.3 µg/mL and 112 µM. Moreover, the “Selectivity Index (SI) Epimastigote” value in data set [2] was found to be 2.5. In data set [3], the IC50 is 64.4 µg/mL and 180 µM; the “Selectivity Index (SI) Trypomastigote” value turned out to be 1.6. Further, the CC50 at 24 h in data set [5] (LLC-MK2 renal epithelial cells) is 100 µg/mL and 280 µM.

For the compound `COc1cc(/C=C/C(=O)OCc2ccc(C)cc2)cc(OC)c1OC` [Compound 9], the 50% inhibitory concentration (IC50) in data set [2] (Y strain, 24 h) was 61.8 µg/mL and 180 µM. Besides, in data set [2], the “Selectivity Index (SI) Epimastigote” value is reported as 3.0. In addition, in data set [3], the IC50 was 39.9 µg/mL and 123 µM; the “Selectivity Index (SI) Trypomastigote” value amounted to 4.6. Moreover, the CC50 at 24 h in data set [5] (LLC-MK2 renal epithelial cells) was 183 µg/mL and 534 µM.

On to `COc1cc(/C=C/C(=O)OCc2ccccc2)cc(OC)c1OC` [Compound 10], for which the IC50 in data set [2] (Y strain, 24 h) was 40 µg/mL and 122 µM; in data set [3], 13.4 µg/mL and 40.8 µM. Moreover, in data set [2], the “Selectivity Index (SI) Epimastigote” value is reported as 4.6. Also, the “Selectivity Index (SI) Trypomastigote” value in data set [3] was determined as 13.7. In addition, in data set [5] (LLC-MK2 renal epithelial cells), the CC50 at 24 h is 183 µg/mL and 557 µM.

Take `C=C(C)[C@@H]1CC=C(COC(=O)/C=C/c2cc(OC)c(OC)c(OC)c2)CC1` [Compound 12]: in data set [2] (Y strain, 24 h), the IC50 is 70.1 µg/mL and 188 µM. For the same compound, in data set [2], the “Selectivity Index (SI) Epimastigote” value is recorded as 1.5. In addition, in data set [3], the IC50 was 38.7 µg/mL and 104 µM; the “Selectivity Index (SI) Trypomastigote” value is listed as 2.7. The CC50 at 24 h in data set [5] (LLC-MK2 renal epithelial cells) was 106 µg/mL and 284 µM.

Consider `COc1cc(C=CC(=O)OC2CC3CCC2(C)C3(C)C)cc(OC)c1OC` (stereo not shown) [Compound 13], for which, in data set [2] (Y strain, 24 h), the IC50 was 155 µg/mL and 414 µM. Further, the “Selectivity Index (SI) Epimastigote” value in data set [2] turned out to be 0.5. For the same compound, the CC50 at 24 h in data set [5] (LLC-MK2 renal epithelial cells) is 71.2 µg/mL and 190 µM.

For the compound `CCOC(=O)/C=C/c1ccc(O)c(O)c1` [ethyl caffeate], the IC50 in data set [6] is 18.3 µM.

`COC(=O)/C=C/c1ccc(O)cc1` [methyl p-coumarate]: the IC50 in data set [7] is 601 µM.

In the case of `COc1cc(/C=C/C(=O)N2CCC=CC2=O)cc(OC)c1OC` [piplartine], the IC50 in data set [4] was 21 µM.
